Where no end group is shown, it is not given here. [ ]: non-standard residue; d: D form. pGlu = O=C1CC[C@@H](C(=O)O)N1
Experiments:
[1] = tested on: hepatitis B virus (HBV) ayw strain; test: HBV assay in HepG2-2.2.15 cells (TaqMan PCR of secreted HBV DNA); assay type: cell-based; details: 10 micrograms per ml; six days; combination 0.95 mole peptide 1 and 1.05 mole peptide 2
Description: HepG2-2.2.15 is a stable cell line containing the hepatitis B virus (HBV) ayw strain genome (ATCC Cat. No. CRL-11997). Antiviral compounds blocking any late step of viral replication such as transcription, translation, pregenome encapsidation, reverse transcription, particle assembly and release can be identified and characterized using this cell line. In this assay, an active compound will reduce the production of secreted HBV from cells, measured by utilizing real time quantitative PCR (TaqMan) assay to directly and accurately measure HBV DNA copies. […] After 16-24 hours the confluent monolayer of HepG2-2.2.15 cells was washed and the medium was replaced with complete medium containing test peptides—10 micrograms per ml—in duplicate. Lamivudine (3TC) was used as the positive control, while media alone was added to the cells as a negative control (virus control). […] Six days following the initial administration of the peptides, the cell culture supernatants was collected, treated with pronase and DNAse and then used in a real-time quantitative TaqMan PCR assay. The PCR-amplified HBV DNA was detected in real-time by monitoring increases in fluorescence signals that result from the exonucleolytic degradation of a quenched fluorescence probe molecule that hybridizes to the amplified HBV DNA. […] Antiviral activity was calculated from the reduction in HBV DNA levels (% virus control). […]

murine spleen cells = test: Th1/Th2 cytokine profiling assay (Ovalbumin restimulation); assay type: cell-based, Balb/c mice; details: 10 micrograms per ml, 72 hours
[2] = tested on: Primary Human endothelial cells (HUVEC); test: Endothelial cell migration assay; assay type: cell-based; details: 10 micrograms per ml; 22 hours
HCMV strain AD169 = test: HCMV plaque formation assay in MRC-5 cells; details: for inhibition of HCMV plaque formation as compared to the virus control: 10 micrograms per ml, 7-10 days
HIV-1IIIB = test: HIV-1 antiviral assay in CEM-SS cells (MTS readout)
HUVEC = test: Endothelial tube formation assay; assay type: cell-based, human; details: 10 micrograms per ml; 20 hours
Description: The endothelial tube formation assay is based on the ability of endothelial cells to form three-dimensional capillary-like tubular structures when cultured on a gel of basement membrane extract. […] Pre-labeled HUVEC with Calcein AM were seeded in a 96-well culture plate coated with extracellular metrix (Chemicon international Cat. ECM625) and treated with test peptides—10 micrograms per ml—in full growth medium. Positive control wes vehicle only. The endothelial cells were allowed to form tubes foe 20 hours and were then examined under an inverted fluorescent microscope. Duplicate wells for each treatment were photographed and quantitatevily analyzed for an average tubule length using image analysis software ImageProPlus. Raw data were expressed as average tubule lengths in pixels ±standard deviation. Statistic p values were computed using the Student's t-test.

[3] = combination 0.95 mole peptide 1 and 1.05 mole peptide 2

Compound	inhibition of HBV replication as compared to the virus control infection [1] [%]	change of the production of IFN-γ (murine spleen cells; [3])	change of the production of TNF-alpha (murine spleen cells; [3])	inhibition of the migration of human endothelial cells [2]	inhibition of HCMV plaque formation as compared to the virus control (HCMV strain AD169)	antiviral activity of positive control compounds (HIV-1IIIB)	further results
Ala-Arg-Leu-Asp-Val-Ala-Ser-Glu-Phe-Arg-Lys-Lys-Trp-Asn-Lys-Trp-Ala-Leu-Ser-Arg-NH2 (ARLDVASEFRKKWNKWALSR-NH2) [Peptide 1]	10.0	did not significantly change	did not significantly change	did not inhibit	did not inhibit		production of IL-2, induced by (murine spleen cells): 44.3%; production of IL-4, induced by (murine spleen cells): 43.2%; change of the production of IL-5 (murine spleen cells; [3]): did not significantly change
CC(C)(C)NC(=O)[C@@H]1CN(Cc2cccnc2)CCN1C[C@@H](O)C[C@@H](Cc1ccccc1)C(=O)N[C@H]1c2ccccc2C[C@H]1O [indinavir]						expected levels of antiviral activity	
Cc1cn([C@H]2C[C@H](N=[N+]=[N-])[C@@H](CO)O2)c(=O)[nH]c1=O [AZT]						expected levels of antiviral activity	
Pyr-Leu-Gly-Pro-Gln-Gly-Pro-Pro-His-Leu-Val-Ala-Asp-Pro-Ser-Lys-Lys-Gln-Gly-Pro-Trp-Leu-Glu-Glu-Glu-Glu-Glu-Ala-Tyr-Gly-Trp-Met-Asp-Phe-NH2 ([pGlu]LGPQGPPHLVADPSKKQGPWLEEEEEAYGWMDF-NH2; SMILES CSCC[C@H](NC(=O)[C@H](Cc1c[nH]c2ccccc12)NC(=O)CNC(=O)[C@H](Cc1ccc(O)cc1)NC(=O)[C@H](C)NC(=O)[C@H](CCC(=O)O)NC(=O)[C@H](CCC(=O)O)NC(=O)[C@H](CCC(=O)O)NC(=O)[C@H](CCC(=O)O)NC(=O)[C@H](CCC(=O)O)NC(=O)[C@H](CC(C)C)NC(=O)[C@H](Cc1c[nH]c2ccccc12)NC(=O)[C@@H]1CCCN1C(=O)CNC(=O)[C@H](CCC(N)=O)NC(=O)[C@H](CCCCN)NC(=O)[C@H](CCCCN)NC(=O)[C@H](CO)NC(=O)[C@@H]1CCCN1C(=O)[C@H](CC(=O)O)NC(=O)[C@H](C)NC(=O)[C@@H](NC(=O)[C@H](CC(C)C)NC(=O)[C@H](Cc1c[nH]cn1)NC(=O)[C@@H]1CCCN1C(=O)[C@@H]1CCCN1C(=O)CNC(=O)[C@H](CCC(N)=O)NC(=O)[C@@H]1CCCN1C(=O)CNC(=O)[C@H](CC(C)C)NC(=O)[C@@H]1CCC(=O)N1)C(C)C)C(=O)N[C@@H](CC(=O)O)C(=O)N[C@@H](Cc1ccccc1)C(N)=O) [Peptide 2]	11.3	did not significantly change	did not significantly change	35%	did not inhibit		production of IL-2, suppressed by (murine spleen cells): 100%; production of IL-4, suppressed by (murine spleen cells): 100%; production of IL-5, deceased by (murine spleen cells): 44.5%; inhibition of the tube formation of human endothelial cells (HUVEC): 9%
Nc1nc(O)c2ncn(COC(CO)CO)c2n1 [Ganciclovir, reference compound]							antiviral activity of positive control compound (HCMV strain AD169; positive control, MRC-5 cells, HCMV AD169): expected levels of antiviral activity

— patent US20100184674A1, “PROADRENOMEDULLIN ALONE OR IN COMBINATION WITH BIG GASTRIN I AS A THERAPEUTIC AGENT” (priority 2007, published 2010)
